The values that follow come from patent US11266149B2, “Herbicidal compositions” (University of Durham, priority 2016, dated 2022).

The test system of data set [1] is phenylalanine ammonia-lyase (PAL). Particulars: Buckwheat PAL inhibition; cited from earlier work.
The test system of a further data set is Arabidopsis plants. The data set can be described thus: Spray treatment of Arabidopsis plants. It counts as in vivo, Arabidopsis thaliana. The procedure:
(§1) Plant material—Arabidopsis thaliana ecotype Columbia-0 was used in all experiments that utilised Arabidopsis. For spray experiments, many seeds were sown in compost inside pots with a base area of […]. The plants were treated with herbicide formulations by spraying when they were 2-3 weeks old. To obtain leaf discs, individual plants were sown in single pots and grown for 4 weeks. Leaf discs of 1-cm diameter were cored from fully expanded leaves. Glyphosate-resistant and susceptible biotypes of Conyza sumatrensis [(Retz.) E. Walker] were obtained from an olive grove in Italy. For spraying experiments, many plants were sown in compost inside pots with a base area of 81 cm^2. Plants were spray-treated at 2 weeks from sowing. For leaf disc experiments, individual plants were sown in single pots and grown for 8 weeks before coring 1-cm diameter leaf discs from fully expanded leaves. All plants were grown in a 16 h photoperiod (˜200 μmol·m^−2·s^−1) at 22° C.
(§2) Chemicals—Shikimic acid and pure glyphosate were purchased from Sigma-Aldrich (Dorset, UK). These were used to make stock solutions in water that were adjusted to pH 5.5 and used for treatment of leaf discs. Shikimate-3-phosphate trisodium salt was purchased from Santa Cruz Biotechnology (Dallas, Tex.). Gallup® 360 (Barclay Chemicals Manufacturing Ltd, Dublin, Ireland), a formulation of 360 g/L glyphosate, was used for spray treatments after diluting down to the desired rate.
(§3) Treatments—Leaf discs of 1 cm-diameter were cored from plants and floated on 10 mL solutions inside Petri dishes. A minimum of 5 replicate discs per treatment arising from 5 independent plants were used. For dark incubation, the Petri dishes were wrapped in aluminium foil to exclude light. Leaf discs were harvested at time-points indicated in the Figure legends for photographing or for shikimic acid analysis. For spray treatments, glyphosate was formulated in 3 mL with enough Gallup® to achieve the desired rate on a surface area of 36 cm^2 or 81 cm^2 pots. A commercial herbicide enhancer oil Activator-G™ (Agrigem Ltd., Market Rasen, UK) was added as an adjuvant to spray at a final rate of 1 L/ha. Shikimate-3-phosphate was added to a final concentration of 500 μM in the 3 mL. Control plants were sprayed with water containing Activator-G only.
Next we turned our attention to the inexplicable retardation of shikimate conversion to shikimate-3-phosphate during exposure to glyphosate. We proposed the hypothesis that shikimate-3-phosphate is a critical component required for glyphosate to be phytotoxic and that glyphosate-susceptible plants attempt to block its formation in order to avoid death. We sprayed 2-week-old Arabidopsis plants with a formulation of glyphosate at different rates with or without shikimate-3-phosphate as an additive. […]

Data set [2] relates to Conyza sumatrensis leaf discs. The data set can be described thus: Leaf discs floated on glyphosate solutions, phytotoxicity / cell death. The format is cell-based. The procedure: as §1, §2, §3
While studying programmed cell death, we noted that light is a crucial factor in the activation of plant cell death (Chivasa et al., 2009; Wang et al., 2012; Smith et al., 2014). We wondered if deprivation of light could also block glyphosate toxicity. To investigate this, we used a previously published in vitro assay (Teaster and Hoagland, 2013) in which leaf discs are floated over glyphosate solutions of desired concentration.

Data set [3] has as its system Conyza sumatrensis leaf discs. The data set can be described thus: Shikimic acid accumulation in leaf discs. The format is cell-based. The procedure: as §3
Shikimic acid analysis—Leaf discs floating on treatment solutions were blotted dry, added to microfuge tubes containing 125 μL of 0.25 N HCL before snap-freezing in liquid nitrogen and storing at −20° C. Samples were thawed at room temperature, vortexed for 5 min, and then incubated at 60° C. for 15 min. Aliquots of 25 μL were withdrawn and mixed with 100 μL of 0.25% (w/v) periodic acid/0.25% m-periodate in fresh microfuge tubes. After 30 min incubation at 37° C., 100 μL of 0.6 N NaOH/0.22 M Na2SO3 were added and the volume made up to 1 mL with distilled water. The shikimic acid in the samples was determined by spectrophotometric measurements at 382 nm against a reagent only blank and using a calibration curve of shikimic acid standards. The shikimic acid accumulating in response to glyphosate treatment was calculated as the difference between the reading from mock-treated control leaf discs and the glyphosate-treated discs. Values were expressed as μg/mL shikimic acid.

A further data set relates to Arabidopsis leaf discs. Nature of the data set: Shikimic acid accumulation in Arabidopsis leaf discs. The format is cell-based, Arabidopsis thaliana. Particulars: 25 μM glyphosate. How it is done:
as §3, with “Control plants were sprayed with water containing Activator-G only.” left out
Shikimic acid analysis—Leaf discs floating on treatment solutions were blotted dry, added to microfuge tubes containing 125 μL of 0.25 N HCL before snap-freezing in liquid nitrogen and storing at −20° C. […] The shikimic acid in the samples was determined by spectrophotometric measurements at 382 nm against a reagent only blank and using a calibration curve of shikimic acid standards. The shikimic acid accumulating in response to glyphosate treatment was calculated as the difference between the reading from mock-treated control leaf discs and the glyphosate-treated discs. Values were expressed as μg/mL shikimic acid. […]

In data set [4] the test system is Arabidopsis shikimate pathway genes. Nature of the data set: Quantitative real-time PCR of shikimate pathway genes in leaf discs. It counts as cell-based, Arabidopsis thaliana. The procedure:
Gene expression analysis—RNA was extracted from leaf tissues using the Spectrum Plant Total RNA kit (Sigma-Aldrich) according to the manufacturer's instructions. Each sample was a pool of five 1 cm-diameter leaf discs arising from 5 independent plants. First strand cDNA synthesis was performed using 4 μg total RNA and oligod(T) using Promega (Southampton, UK) GoScript Reverse Transcription System. Quantitative real-time polymerase chain reaction was performed using SensiFast reagent kit (Bioline, London, UK) on a Rotorgene-Q (Qiagen, Crawley, UK). Each 20 μL reaction contained 10 μL SensiFast reagent, 5 μL cDNA template that had been diluted 1:8, and 8 pmoles each primer (forward and reverse primers). Cycling conditions used were as follows: denaturation at 95° C. for 2 mins followed by 40 cycles of 95° C. for 10 sec, annealing at 56° C. for 15 sec, and extension at 72° C. for 25 sec. Data analysis was performed using REST2009 (Qiagen, Crawley, UK) using ACTIN2 (At3g18780) and EIF4 (At3g13920) as reference control genes. Triplicate samples per treatment per time-point were analysed in order to calculate a mean and standard deviation.
Arabidopsis leaf discs were floated on 25 μM glyphosate solutions and incubated in light or total darkness. Samples were harvested at various intervals within 72 h of treatment for quantification of shikimic acid and analysis of gene expression using quantitative real-time PCR. […] All three DAPS genes were differentially regulated, only one of the five putative SK genes responded to glyphosate, both EPSPS genes were responsive, and the chorismate synthase (CS) genes responded as well (FIG. 6). Up-regulation of the shikimate pathway components triggered by blockading flux with glyphosate is a typical metabolic response.

Data set [5] relates to Glyphosate-resistant (GR) and susceptible (GS) C. sumatrensis plants. The data set can be described thus: Cut shoots placed in glyphosate solution with or without gluconic acid. It counts as in vivo, Conyza sumatrensis. Particulars: 100 μM glyphosate only, ten days (FIG. 8). How it is done: Glyphosate-resistant (GR) and susceptible (GS) C. sumatrensis plants were germinated in soil and transferred to solutions of 100 μM glyphosate with or without 5 mM gluconic acid.
Because the pentose phosphate pathway gene GntK responds to glyphosate, we tested if intermediates in the pathway might also influence glyphosate toxicity (FIG. 8). Glyphosate resistant (GR) and glyphosate susceptible (GS) Conyza sumatrensis were germinated in soil and the shoots cut off at the base of the stem and placed in 2 mL of 100 μM glyphosate with or without gluconic acid at various concentrations. […] Cessation of growth and development of chlorosis are key hallmarks of glyphosate toxicity.

For data set [6] the following is noted: 25° C.; cited from earlier work.
In another data set the test system is Galium mollugo cells. Particulars: glyphosate-treated Galium mollugo cells; cited from earlier work.
[7] abbreviates: glyphosate, dark incubation (FIG. 6).
Where [8] appears, read: glyphosate-treated leaf discs (FIG. 6).

Entries after “also recorded” stand apart in the source; their conditions may differ.

`NO[C@@H](Cc1ccccc1)C(=O)O` [L-α-aminooxy-β-phenylpropionic acid]: the “phenylalanine accumulation, light versus dark” value in [1] is given as “three-fold higher phenylalanine accumulation in light than in the dark”.
For the molecule `O=C([O-])C1=C[C@@H](OP(=O)([O-])[O-])[C@@H](O)[C@H](O)C1.[Na+].[Na+].[Na+]` [Shikimate-3-phosphate, Shikimate-3-phosphate trisodium salt], in the data set with Arabidopsis plants (500 μM shikimate-3-phosphate on its own, spray (FIG. 7C)), the “adverse effects on Arabidopsis” value was “did not have any adverse effects”.
Consider `O=C(O)CNCP(=O)(O)O` [glyphosate, N-[phosphonomethyl] glycine], for which the “phytotoxic effects at much higher glyphosate concentration” value in [2] (1 mM glyphosate, dark incubation, 3 days (FIG. 2C)) is “still requires light for phytotoxicity; also recorded: dark-incubation suppressed the phytotoxic effects”. The “phytotoxic effects of glyphosate on leaf discs” value in data set [2] (incubated in complete darkness, 100 μM glyphosate, 14 days (FIG. 2A)) is “protected from the phytotoxic effects”. Besides, in data set [2] (resistant biotype, 100 μM glyphosate on its own (FIG. 4A)), the “viability of leaf discs” value is on record as “did not affect the viability”. Moreover, the “shikimate accumulation and cell death by biotype” value in [2] (susceptible and resistant biotypes (FIG. 3)) is “activates shikimate accumulation and cell death in the susceptible, but not resistant biotype”. Moreover, in data set [2] (susceptible biotype, leaf discs floated on glyphosate), the “time until cell death (chlorosis, browning) easily visible” value was 10 to 14 days. Moreover, the “shikimic acid accumulation in leaf tissues” value in data set [3] (continuous dark incubation (FIG. 2B)) is recorded as “suppressed shikimic acid accumulation”. Also, the “shikimic acid level, susceptible versus resistant biotype” value in data set [3] (glyphosate 25-200 μM, one week (FIG. 3B)) is reported as “significantly higher levels of shikimic acid than the resistant biotype”. In data set [3] (light-dark cycle, one week after treatment (FIG. 2B)), the “shikimic acid concentration in leaf tissues” value is given as “massive rise”. Also, the “maximum concentration of shikimic acid accumulating” value in data set [3] (susceptible C. sumatrensis, within 3 days of exposure to glyphosate) is 10 to 15 mM. Besides, the shikimic acid accumulation result in the data set with Arabidopsis leaf discs (dark incubation (FIG. 5)) was “suppressed shikimic acid accumulation”. Also, in the data set on Arabidopsis leaf discs (incubated in light, within 72 h (FIG. 5)), the shikimic acid accumulation result was “significant accumulation of shikimic acid”. Further, in data set [4] (setting [7]), the “expression of At2g16790 in the dark” value is recorded as “also stimulated in the dark” and the “glyphosate-induced stimulation of other genes in the dark” value is recorded as “dark incubation suppressed glyphosate-induced stimulation”. In addition, the “expression of DAHPS, SK, EPSPS and CS genes” value in data set [4] (glyphosate, in light (FIG. 6)) is recorded as “significant changes in the expression”. In data set [4] (setting [8]), the “change in gene expression of At2g16790” value is reported as “over 30 fold” and the “change in gene expression of all other genes” value is reported as “below 6 fold”. Also, the “symptoms after foliar application by spraying” value with Arabidopsis plants (2-week-old plants, Gallup 360 formulation (FIG. 7A)) was “causes chlorosis and then cell death of apical meristems”. Also, the “effects on plant growth” value in the data set on Arabidopsis plants (glyphosate 18 g/ha, spray, 3 weeks (FIG. 7B)) is “no effects on plant growth”. For the same molecule, the “effects on Arabidopsis” value with Arabidopsis plants (glyphosate 36 g/ha, spray, 3 weeks (FIG. 7B)) was “very modest effects”. Besides, in [5] (GR plants), the “growth and chlorosis of GR plants” value is “have grown with expanded healthy and green leaves; also recorded: remained healthy and green”. The “growth and chlorosis of GS plants” value in data set [5] (GS plants) was “stunted and chlorotic; also recorded: stopped growing and developed chlorosis, which eventually led to tissue death”. Moreover, the solubility in water in data set [6] is given as 1.16 % by weight. Also, the “estimated cellular shikimic acid” value in the data set with Galium mollugo cells is 20 to 23 mM.
As to `O=C(O)C1=C[C@@H](O)[C@@H](O)[C@H](O)C1` [shikimic acid, Shikimic acid], in data set [2] (with glyphosate, shikimic acid below 1-5 mM, 7 days (FIG. 4B)), the “breaking of glyphosate resistance at lower shikimic acid concentrations” value is reported as “unable to”. For the same molecule, the “shikimic acid concentrations able to break glyphosate resistance” value in [2] (with glyphosate, within 7 days of application (FIG. 4B)) is 1 to 5 mM. For the same molecule, the “phytotoxicity of shikimic acid on its own” value in data set [2] (without glyphosate, up to 15 mM) is on record as “not phytotoxic; also recorded: did not cause any phytotoxicity”.
